Experimental findings from patent publication US20200188361A1, “USE OF MITOCHONDRIAL ACTIVITY INHIBITORS FOR THE TREATMENT OF POOR PROGNOSIS ACUTE MYELOID LEUKEMIA” (UNIVERSITE DE MONTREAL, priority 2016, published 2020) are described below.

Assay [1] deals with HOX-high AML patient cells. In words: Primary chemical screen of 60 compounds, cell dose-response viability assay (CellTiterGlo, 6 days). Type of assay: cell-based, human. Particulars: for EC50: read-out: MEAN EC50 HOX-high. The method, then: (§1) frozen AML mono-nucleated cells were thawed at 37° C. in Iscove's modified Dulbecco's medium (IMDM) containing 20% FBS and DNase I (100 μg/mL).
(§2) All powders were dissolved in DMSO and diluted in culture medium immediately before use. Final DMSO concentration in all conditions was 0.1%. The 60 compounds were purchased from various suppliers including Santa Cruz, Selleckchem, Calbiochem, AdooQ Bioscience, Cayman chemical and Synkinase.
(§3) Patient cells were seeded in 384-well plates at a density of 5,000 cells in 50 μL per well. In the initial screen, compounds were added to seeded cells in serial dilutions (10 dilutions, 1:3, starting from 10 μM or 20 μM), in duplicates. Cells treated with 0.1% DMSO without additional compound were used as negative controls. Viable cell counts per well were evaluated after 6 days of culture using the CellTiterGlo® assay (Promega®) according to the manufacturer's instruction.
(§4) Using high expression of HOXA9 and HOXA10 as a surrogate for the detection of HOX-network-high patient samples, the survival of HOX-high versus HOX-med/low specimens contacted with 60 inhibitors targeting receptor tyrosine kinases (RTK), members of the RAS and PI3K pathways, was assessed (FIG. 2A, Table 4).

For assay [2], the system named is HOX-med/low AML patient cells. Described as above. It is filed as cell-based, human. Particulars: read-out: MEAN EC50 HOX-med/low. The protocol: as §1, §2, §3, §4
Setting [3] is: primary screen, mean over HOX-high patient specimens, 6 days culture, top concentration 10 μM or 20 μM.
Where [4] appears, read: ratio of mean EC50 HOX-high to mean EC50 HOX-med/low.
The mark [5] stands for this setting: primary screen, mean over HOX-med/low patient specimens, 6 days culture, top concentration 10 μM or 20 μM.
Where [6] appears, read: Homo sapiens, 144 h, primary screen, mean over HOX-high patient specimens, 6 days culture, top concentration 10 μM or 20 μM.
The mark [7] stands for this setting: Homo sapiens, 144 h, primary screen, mean over HOX-med/low patient specimens, 6 days culture, top concentration 10 μM or 20 μM.

Where a name gives a salt, the structure may show the parent alone. Read-outs that look alike come from different tables or passages of the source.

Take `Cc1ccc(NC(=O)c2cccc(N(C)C)c2)cc1NC(=O)c1ccc(O)cc1` [ZM336372]: the EC50 in assay [1] (setting [3]) was above 10 µM; in assay [2] (setting [5]) it was 8.88 µM. Besides, the “FOLD CHANGE High/Med-low” value in assay [1] (setting [4]) is 1.1.
With `O=c1cc(N2CCNCC2)oc2c(-c3ccccc3)cccc12` [LY303511], the EC50 in assay [1] (setting [6]) and in assay [2] (setting [7]) was above 10 µM each time.
In the case of `COc1ccc2cc(-c3nc(-c4ccc([S+](C)[O-])cc4)[nH]c3-c3ccncc3)ccc2c1` (stereo not drawn) [Tie2 Kinase Inhibitor], the EC50 in assay [1] (setting [3]) and in assay [2] (setting [5]) was above 10 µM each time. In assay [1] (setting [4]), the “FOLD CHANGE High/Med-low” value is given as 1.0.
Take `COc1cc2nccc(Oc3ccc(NC(=O)NC4CC4)c(Cl)c3)c2cc1C(N)=O` [E7080 Lenvatinib., Lenvatinib]: the values for the EC50 in assay [1] (setting [6]) and in assay [2] (setting [7]) were 7.29 µM and 3.34 µM, respectively. Moreover, in assay [1] (setting [4]), the “FOLD CHANGE High/Med-low” value came to 2.2.
For `CNC(=O)c1cccc(-c2ccc3c(N4CCOC[C@@H]4C)nc(N4CCOC[C@@H]4C)nc3n2)c1` [AZD2014, 3-(2,4-bis((S)-3-methylmorpholino)pyrido[2,3-d]pyrimidin-7-yl)-N-methylbenzamide] the same measures were 0.782 µM, 0.217 µM and 3.6.
As for `N#Cc1ccc(C(=O)Nc2cc(N3CCCCC3)ccc2N2CCCCC2)o1` [cFMS Receptor Inhibitor IV], the results for the EC50 in assay [1] (setting [3]) and in assay [2] (setting [5]) were above 10 µM and 9.57 µM, respectively. The “FOLD CHANGE High/Med-low” value in assay [1] (setting [4]) was 1.0.
With `CN(C)CCOc1ccc(-c2nc(-c3ccncc3)c(-c3ccc4c(c3)CC/C4=N\O)[nH]2)cc1` [SB590885], the EC50 in assay [1] (setting [6]) turned out to be 5.88 µM; in assay [2] (setting [7]) it was 3.88 µM. The “FOLD CHANGE High/Med-low” value in assay [1] (setting [4]) came out at 1.5.
For the compound `Cn1cnc2c(F)c(Nc3ccc(Br)cc3Cl)c(C(=O)NOCCO)cc21` [Selumetinib AZD6244., Selumetinib], the EC50 was determined as 1.24 µM in assay [1] (setting [6]) and 1.38 µM in assay [2] (setting [7]). Moreover, the “FOLD CHANGE High/Med-low” value in assay [1] (setting [4]) amounted to 0.9.
The matching figures for `Cn1cncc1[C@@](N)(c1ccc(Cl)cc1)c1ccc2c(c1)c(-c1cccc(Cl)c1)cc(=O)n2C` [Tipifarnib]: 0.109 µM, 0.158 µM and 0.7.
Consider `CNC(=O)c1cc(Oc2ccc(NC(=O)Nc3ccc(Cl)c(C(F)(F)F)c3)cc2)ccn1` [Sorafenib Tosylate], for which the “FOLD CHANGE High/Med-low” value in assay [1] was found to be 1.2. The EC50 in assay [1] (setting [6]) amounted to 1.1 µM; in assay [2] (setting [7]), 0.936 µM.
Consider `Nc1cccc2c1CN(C1CCC(=O)NC1=O)C2=O` (stereo not drawn) [Lenalidomide], for which the EC50 was determined as 7.31 µM in assay [1] (setting [6]) and 9.91 µM in assay [2] (setting [7]). In addition, the “FOLD CHANGE High/Med-low” value in assay [1] (setting [4]) was found to be 0.7.
In the case of `N#CC(=C(/N)Sc1ccccc1N)/C(C#N)=C(\N)Sc1ccccc1N` [U0126], the “FOLD CHANGE High/Med-low” value in assay [1] is given as 1.1. Besides, the EC50 in assay [1] (Homo sapiens, 144 h) worked out at 4.48 µM; in assay [2] (Homo sapiens, 144 h), 4.11 µM.
Take `C#Cc1cccc(Nc2ncnc3cc(OCCOC)c(OCCOC)cc23)c1` [Erlotinib]: the EC50 in assay [1] (setting [6]) was 8.66 µM; in assay [2] (setting [7]), 9.14 µM. In addition, the “FOLD CHANGE High/Med-low” value in assay [1] (setting [4]) is given as 0.9.
For `CC[C@H](Nc1ncnc2[nH]cnc12)c1nc2cccc(F)c2c(=O)n1-c1ccccc1` [GS1101 idelalisib CAL101, idelalisib] the same measures were 7.47 µM, 5.67 µM and 1.3.
In the case of `CCN(CC)CCCCNc1ncc2cc(-c3cc(OC)cc(OC)c3)c(NC(=O)NC(C)(C)C)nc2n1` [PD173074], the EC50 in assay [1] (setting [3]) was 4.95 µM; in assay [2] (setting [5]), 5.2 µM. For the same compound, the “FOLD CHANGE High/Med-low” value in assay [1] (setting [4]) is reported as 1.0.
`C[C@]1(O)C[C@@H](c2nc(-c3ccc4ccc(-c5ccccc5)nc4c3)c3c(N)nccn32)C1` [OS1906 Linsitinib., Linsitinib]: the values for the EC50 in assay [1] (setting [6]) and in assay [2] (setting [7]) were 4.25 µM and 3.94 µM, respectively. Besides, in assay [1] (setting [4]), the “FOLD CHANGE High/Med-low” value turned out to be 1.1.
As for `CO[C@H]1C[C@@H]2CC[C@@H](C)[C@@](O)(O2)C(=O)C(=O)N2CCCC[C@H]2C(=O)O[C@H]([C@H](C)C[C@@H]2CC[C@@H](O)[C@H](OC)C2)CC(=O)[C@H](C)/C=C(\C)[C@@H](O)[C@@H](OC)C(=O)[C@H](C)C[C@H](C)/C=C/C=C/C=C/1C` [Rapamycin], the EC50 in assay [1] (setting [6]) is 1.89 µM; in assay [2] (setting [7]), 0.951 µM. In assay [1] (setting [4]), the “FOLD CHANGE High/Med-low” value stood at 2.0.
For the compound `COc1cccc(-c2cc(=O)c3ccccc3o2)c1N` [PD98059], in assay [1] (setting [4]), the “FOLD CHANGE High/Med-low” value turned out to be 1.0. In assay [2] (setting [5]), the EC50 is above 10 µM.
Take `Cn1cc(C2=C(c3cn(C4CCN(Cc5ccccn5)CC4)c4ccccc34)C(=O)NC2=O)c2ccccc21` [Enzastaurin]: the results for the EC50 in assay [1] (setting [6]) and in assay [2] (setting [7]) were 9.84 µM and above 10 µM, respectively. Also, in assay [1] (setting [4]), the “FOLD CHANGE High/Med-low” value came out at 1.0.
For `O=C(NOCC1CC1)c1ccc(F)c(F)c1Nc1ccc(I)cc1Cl` [CI1040 PD.184352.] the same measures were 2.44 µM, 2.77 µM and 0.9.
The matching figures for `CS(=O)(=O)N1CCN(Cc2cc3nc(-c4cccc5[nH]ncc45)nc(N4CCOCC4)c3s2)CC1` [GDC0941]: 1.11 µM, 0.603 µM and 1.8.
In the case of `Nc1ncnc2c1c(-c1cccc(OCc3ccccc3)c1)cn2C1CC(CN2CCC2)C1` (stereo not drawn) [NVPAEW541], the EC50 came to 1.73 µM in assay [1] (setting [3]) and 1.77 µM in assay [2] (setting [5]). In addition, the “FOLD CHANGE High/Med-low” value in assay [1] (setting [4]) was found to be 1.0.
Take `Cc1nc(NC(=O)N2CCC[C@H]2C(N)=O)sc1-c1ccnc(C(C)(C)C(F)(F)F)c1` [BYL719]: the EC50 in assay [1] (setting [6]) came out at 7.52 µM; in assay [2] (setting [7]), 4.75 µM. The “FOLD CHANGE High/Med-low” value in assay [1] (setting [4]) was 1.6.
The matching figures for `Cc1nc(Nc2ncc(C(=O)Nc3c(C)cccc3Cl)s2)cc(N2CCN(CCO)CC2)n1` [Dasatinib]: 0.774 µM, 0.322 µM and 2.4.
The matching figures for `C=CCNC1=C2C[C@@H](C)C[C@H](OC)[C@H](O)[C@@H](C)/C=C(\C)[C@H](OC(N)=O)[C@@H](OC)/C=C\C=C(/C)C(=O)NC(=CC1=O)C2=O` [Tanespimycin 17AAG, Tanespimycin]: 0.314 µM, 0.249 µM and 1.3.
Turning to `CC(C)c1cc(/C=C(\C#N)C(=O)NCCCc2ccccc2)cc(C(C)C)c1O` [SU1498], the EC50 in assay [1] (setting [3]) came out at 9.86 µM; in assay [2] (setting [5]), 9.67 µM. The “FOLD CHANGE High/Med-low” value in assay [1] (setting [4]) was 1.0.
`COc1cccc2cc(-c3nc([C@H]4CC[C@H](C(=O)O)CC4)n4ncnc(N)c34)[nH]c12` [OSI027, (1r,4r)-4-(4-amino-5-(7-methoxy-1H-indol-2-yl)imidazo[1,5-f][1,2,4]triazin-7-yl)cyclohexanecarboxylic acid]: the EC50 in assay [1] (setting [6]) worked out at 2.03 µM; in assay [2] (setting [7]), 0.666 µM. Moreover, in assay [1] (setting [4]), the “FOLD CHANGE High/Med-low” value was 3.1.
The matching figures for `NC1(c2ccc(-c3nc4ccn5c(=O)[nH]nc5c4cc3-c3ccccc3)cc2)CCC1` [MK2206]: 2.28 µM, 1.04 µM and 2.2.
In the case of `Nc1[nH]nc2nnc(-c3c(-c4ccccc4)nn4ccccc34)cc12` [ERK Inhibitor II FR180204], the EC50 in assay [1] (setting [3]) and in assay [2] (setting [5]) was above 10 µM each time. Besides, the “FOLD CHANGE High/Med-low” value in assay [1] (setting [4]) stood at 1.0.
With `Nc1nc(Nc2ccc3c(c2)CCC(N2CCCC2)CC3)nn1-c1cc2c(nn1)-c1ccccc1CCC2` (stereo not drawn) [R428], the EC50 was determined as 0.487 µM in assay [1] (setting [3]) and 0.592 µM in assay [2] (setting [5]). Moreover, the “FOLD CHANGE High/Med-low” value in assay [1] (setting [4]) was 0.8.
With `c1cc(CN2CCCNCCNCCCNCC2)ccc1CN1CCCNCCNCCCNCC1` [AMD3100], the EC50 in assay [1] (setting [6]) is 9.59 µM; in assay [2] (setting [7]), above 10 µM. Moreover, the “FOLD CHANGE High/Med-low” value in assay [1] (setting [4]) was 1.0.
Consider `COc1ccc(Cl)c(Nc2nc3ccccc3nc2NS(=O)(=O)c2cccc(NC(=O)C(C)(C)N)c2)c1` [SAR245408 XL147], for which the EC50 in assay [1] (setting [6]) and in assay [2] (setting [7]) was above 10 µM throughout.
